Where a SMILES comes first, the peptide text is derived from it.
Legend:
Botrytis cinerea = assay: MIC of NCR13 and alanine scanning variants, 96-well plate / resazurin assay; type: cell-based; settings: 48 h
Description: Antifungal activity of NCR13_AlaV1-V5 was assessed at different concentrations using a 2-fold dilution series of each peptide. Antifungal activity of each peptide was determined spectrophotometrically using the 96-well plate assay. Around 45 μL of each peptide at different concentrations was added to each well of the microtiter plate containing 45 μL of ˜[…] spore suspension. The quantitative fungal growth inhibition was determined by measuring the absorbance at 595 nm using a (Tecan Infinite M200 ProTecan Systems Inc., San Jose, CA) microplate reader after 48 h. The fungal cell viability was determined by the resazurin cell viability assay. After incubation of the pathogen/peptide mixture for 48 h, 10 μl of 0.1% resazurin solution was added to each well. After incubation of the mixture overnight, a change in the color of the resazurin dye from blue to pink or colorless indicated the presence of live fungal cells. The MIC for each peptide was the lowest concentration of each peptide at which no change in blue color occurred.

Botrytis cinerea T-4 = assay: MIC determination, 96-well plate assay with resazurin cell viability readout; type: cell-based
Description: The fungal strain of Botrytis cinerea T-4 was cultured on V8 agar plates. Fungal spores were harvested by flooding the fungal growth plates with sterile water. The spore suspension was filtered through two layers of Miracloth, centrifuged at 13,600 rpm for 1 min, washed, and re-suspended in low-salt Synthetic Fungal Medium (SFM) (U.S. Pat. No. 6,316,407, incorporated herein by reference in its entirety). The spore suspension was adjusted to the desired spore count using a hemocytometer.
Antifungal activity of NCR13_V7 (SEQ ID NO: 9) and NCR13_V9 (SEQ ID NO: 11) was assessed at different concentrations using a 2-fold dilution series of each peptide. Antifungal activity of each peptide was determined spectrophotometrically using the 96-well plate assay (Kereszt et al., Front. Plant Sci. 9, 1026 (2018)). Around 45 μL of each peptide at different concentrations was added to each well of the microtiter plate containing 45 μL of ˜10^5 spores/ml spore suspension. The quantitative fungal growth inhibition was determined by measuring the absorbance at 595 nm using a (Tecan Infinite M200 ProTecan Systems Inc., San Jose, CA) microplate reader after 48 h. The fungal cell viability was determined by the resazurin cell viability assay (Tiricz et al., Appl. Environ. Microbiol. 79, 6737-6746 (2013);. Balogh et al., Acta Microbiol. Immunol. Hung. 61, 229-239 (2014)). […]

B. cinerea = assay: Semi-in planta drop-inoculation antifungal assay on detached N. benthamiana leaves (gray mold); type: in vivo, Botrytis cinerea on Nicotiana benthamiana; settings: B. cinerea spores, peptide 0.75, 1.5, 3 and 6 μM, 48 h

Row | Compound | MIC (μM) Botrytis cinerea (Botrytis cinerea) | fold higher antifungal activity than NCR13_V7 (Botrytis cinerea T-4; B. cinerea in SFM) | MIC (μM) in SFM (Botrytis cinerea T-4; B. cinerea, low-salt Synthetic Fungal Medium (SFM), 48 h) | reduction of lesion size (B. cinerea)
1 | TKPCQSDKDCAAAACRKPKVPKCINGFCKCVR [NCR13_AlaV2] | Inactive | – | – | –
2 | CC[C@H](C)[C@H](NC(=O)[C@H](CS)NC(=O)[C@H](C)NC(=O)[C@H](C)NC(=O)[C@H](C)NC(=O)[C@H](CCCCN)NC(=O)[C@@H]1CCCN1C(=O)[C@H](CCCCN)NC(=O)[C@H](CCCNC(=N)N)NC(=O)[C@H](CS)NC(=O)[C@H](C)NC(=O)[C@H](Cc1ccccc1)NC(=O)[C@H](CCCCN)NC(=O)[C@H](CCCCN)NC(=O)[C@H](CS)NC(=O)[C@H](CC(=O)O)NC(=O)[C@H](CCCCN)NC(=O)[C@H](CC(=O)O)NC(=O)[C@H](CO)NC(=O)[C@H](CCC(N)=O)NC(=O)[C@H](CS)NC(=O)[C@@H]1CCCN1C(=O)[C@H](CCCCN)NC(=O)[C@@H](N)[C@@H](C)O)C(=O)N[C@@H](CC(N)=O)C(=O)NCC(=O)N[C@@H](Cc1ccccc1)C(=O)N[C@@H](CS)C(=O)N[C@@H](CCCCN)C(=O)N[C@@H](CS)C(=O)N[C@H](C(=O)N[C@@H](CCCNC(=N)N)C(=O)O)C(C)C [NCR13_AlaV4] (H-TKPCQSDKDCKKFACRKPKAAACINGFCKCVR-OH; N-terminus and C-terminus assumed) | Inactive | – | – | –
3 | TKPCQSDKDCKKFACAAAAVPKCINGFCKCVR [NCR13_AlaV3] | Inactive | – | – | –
4 | N=C(N)NCCC[C@H](NC(=O)[C@H](CS)NC(=O)[C@H](Cc1c[nH]c2ccccc12)NC(=O)[C@H](Cc1ccccc1)NC(=O)[C@H](CCCCN)NC(=O)[C@@H](N)CCCCN)C(=O)N[C@@H](CCCCN)C(=O)N1CCC[C@H]1C(=O)N[C@@H](CCCCN)C(=O)N[C@@H](Cc1c[nH]c2ccccc12)C(=O)N1CCC[C@H]1C(=O)N[C@@H](CCCCN)C(=O)N[C@@H](CS)C(N)=O [NCR13_V9, KKFWCRKPKWPKC-NH2] (H-KKFWCRKPKWPKC-NH2; N-terminus assumed) | – | 2 fold | 1.5 µM | reduced the lesion sizes greater than NCR13_V7

— patent publication US20260139005A1 (priority 2022, published 2026)
